Measurements from patent US20060127505A1, “Anti-inflammatory formulations” (priority 2002, published 2006).
Entries after “also recorded” stand apart in the source; their conditions may differ. Where a name gives a salt, the structure may show the parent alone. Marks after values point to notes of the source that are not given here.

Columns and labels:
[1] = tested on: ovalbumin(OA)-induced asthma in guinea pigs; test: Ovalbumin-induced asthma in guinea pigs: inflammatory cells in BAL fluid; assay type: in vivo, guinea pig; conditions: for Eosinophils / Macrophages / Neutrophils: BAL fluid 24 hours after OV challenge
Method: The effect combinations of vitamin C, astaxanthin, and ginkolide on asthma-associated disease parameters ovalbumin(OA)-induced asthma in guinea pigs was evaluated. Twenty-four hours following OA challenge, animals are sacrificed and numbers of inflammatory cells (eosinophils, neutrophils, macrophages) are measured in bronchoalveolar lavage (BAL) fluid; and cAMP and cGMP concentrations in the lung tissue. The experiments were carried out as follows. Male Hartley guinea pigs (250-350 g) were sensitized by intramuscular injections of 0.35 ml of a 5% (W/V) ovalbumin (OA)/saline solution into each thigh on days 1 and 4. Guinea pigs were ready for asthmatic challenge after 25 days of ovalbumin injection. Asthmatic challenge was carried out with ovalbumin aerosol, and bronchoalveolar lavage (BAL) was done 24 hours later. The numbers of eosinophils, neutrophils, and macrophages in the BAL fluid were counted. Twenty-four hours after the aerosol OA challenge, guinea pigs were killed by cervical dislocation and exsanguinated by severing the axillary arteries. Lungs were lavaged with 50 ml of DulBecco's phosphate-buffered saline (aliquots of 10 ml), which were aspirated after gentle chest massage. BAL fluid was centrifuged at 2200 rpm (1100×g) for 10 min, supernatant was aspirated, and pellets were resuspended in 5 ml 0.25% NaCl to lyse residual erythrocytes. This dispersion was centrifuged at 2200 rpm (1100×g) for 10 min, supernatant was aspirated, and pellets were resuspended 5 ml 0.9% NaCl. Total cell counts were done by hemocytometry using trypan blue stain. Slides were prepared on a Shandon Cytospin 2 (Pittsburgh, Pa.) at 300 rpm for 5 min, fixed and stained. Differential cell counts were done using standard morphologic criteria to classify cells as eosinophils, neutrophils, or macrophages, and the results were expressed in cell numbers. The dose-responsive effect of AX, EGb761, and vitamin C administered independently for suppression of asthma-associated parameters in allergen-induced, asthmatic guinea pigs was determined. Ibuprophen (IB) was used as the positive control. Concentration of inflammatory cells in bronchoalveolar lavage (BAL) fluid and levels of cAMP and cGMP in lung tissue were measured in guinea pigs 24 hours following challenge with OV. Data is reported as mean±SD of measurements taken in 6 animals per dosage cohort. *p<0.05 compared to corresponding values of OV antigen-challenged, drug-free control group. The dose-responsive effect of AX, EGb761, and vitamin C administered in combination for suppression of asthma-associated parameters in allergen-induced, asthmatic guinea pigs was determined. The combination of these three components was given each day for each guinea pig as a “cocktail”. Concentration of inflammatory cells in bronchoalveolar lavage (BAL) fluid and levels of cAMP and cGMP in lung tissue were measured in guinea pigs 24 hours following challenge with OV. Data is reported as mean±SD of measurements taken in 6 animals per dosage cohort. *p<0.05 compared to corresponding values of OV antigen-challenged, drug-free control group.

[2] = tested on: cAMP and cGMP concentrations in the lung tissue; test: Ovalbumin-induced asthma in guinea pigs: cAMP and cGMP in lung tissue (radioimmunoassay); assay type: in vivo, guinea pig; conditions: lung tissue 24 hours after OV challenge
Method: The effect combinations of vitamin C, astaxanthin, and ginkolide on asthma-associated disease parameters ovalbumin(OA)-induced asthma in guinea pigs was evaluated. Twenty-four hours following OA challenge, animals are sacrificed and numbers of inflammatory cells (eosinophils, neutrophils, macrophages) are measured in bronchoalveolar lavage (BAL) fluid; and cAMP and cGMP concentrations in the lung tissue. The experiments were carried out as follows. Male Hartley guinea pigs (250-350 g) were sensitized by intramuscular injections of 0.35 ml of a 5% (W/V) ovalbumin (OA)/saline solution into each thigh on days 1 and 4. Guinea pigs were ready for asthmatic challenge after 25 days of ovalbumin injection. Asthmatic challenge was carried out with ovalbumin aerosol, and bronchoalveolar lavage (BAL) was done 24 hours later. The numbers of eosinophils, neutrophils, and macrophages in the BAL fluid were counted. Biopsies from lung tissues, cAMP and cGMP were measured using commercially available radioimmunoassay kits (Amersham). Immediately after sampling, lung biopsies were frozen by means of a Wollenberger clamp prechilled in liquid nitrogen. Samples were powdered with a pestle and mortar in liquid nitrogen and trichloro acetic acid (TCA) was added to the powdered frozen samples ([…] of tissue). Samples were further homogenized in the frozen TCA in the braying mortar and then centrifuged at 14,000×g for 10 min at 4° C. The supernatants were extracted 6 times in water-saturated diethylether, evaporated and assayed for cGMP by radioimmunoassay using liquid scintillation counter (Packard, Tri-Carb 2100TR). The dose-responsive effect of AX, EGb761, and vitamin C administered independently for suppression of asthma-associated parameters in allergen-induced, asthmatic guinea pigs was determined. Ibuprophen (IB) was used as the positive control. Concentration of inflammatory cells in bronchoalveolar lavage (BAL) fluid and levels of cAMP and cGMP in lung tissue were measured in guinea pigs 24 hours following challenge with OV. […] The dose-responsive effect of AX, EGb761, and vitamin C administered in combination for suppression of asthma-associated parameters in allergen-induced, asthmatic guinea pigs was determined. The combination of these three components was given each day for each guinea pig as a “cocktail”. Concentration of inflammatory cells in bronchoalveolar lavage (BAL) fluid and levels of cAMP and cGMP in lung tissue were measured in guinea pigs 24 hours following challenge with OV.

[3] = tested on: CD3+CD25+ cells in human PBMC; test: T lymphocyte activation (CD3+CD25+) in PHA-stimulated PBMC of asthma patients (Example 6); assay type: cell-based; conditions: PHA 50 μg/ml, 24 hours; 10^−5 M
Method: Experiments were carried out to determine whether formulations based on the platelet activating factor receptor (PAFR) antagonist and free radical scavenger Ginkgolide B (GB) in combination with the antioxidant carotenoid astaxanthin (ASX) suppress T cell activation in the same dose range as two commonly-used antihistamines: cetirizine dihydrochloride (CTZ/Zyrtec) and azelastine ([…]). […] Results are reported as stimulation indices (SI) of % CD3+CD25+ cells in cultures treated with PHA alone to % CD3+CD25+ cells in each drug-supplemented culture. […] Subjects for this study included 12 patients diagnosed with atopic asthma, 7 male and 5 female, ranging in age from 21 to 40 years (mean 28±1.8 years). Disease duration ranged from 2 to 12 years. Atopy was defined on the basis of one or more positive skin prick tests to a range of 20 allergens. None of the patients had received systemic therapy for at least 6 weeks prior to blood collection. The mean serum IgE was 335 (170-480) IU/ml. Venous blood for each subject was collected in polyethylene tubes containing EDTA during a one hour morning time interval. PBMC were separated by Ficoll-paque (Pharmacia, Uppsala, Sweden) density gradient centrifugation. Cells were washed and suspended in RPMI 1640 medium (Gibco BRL, Gaithersburg, Md.) at density of 1×10^6 cells/ml. PBMC were stimulated with 50 μg/ml Phytohemaglutinin (PHA) (Sigma Immunopharmaceuticals, St. Lous Mo.), or PHA plus 10^-8-10^-5 M astaxanthin (Natural Alternatives International (NAI) Inc., San Marcos Calif.); or ginkgolide B 10^-8-10^-6 M (NAI San Marcos Calif.); or selected combinations of ASX plus GB. Comparison of ASX and GB effects on T cell activation were made with two other pharmacological agents with anti-asthmatic properties by treating cells with 10^-7-10^-4 M cetirizine dihydrochloride (Pfizer Pharmaceuticals, Norwich Conn.); or 10^-7-10^-4 M azalestine hydrochloride (Wallace Pharmaceuticals, Somerset N.J.), followed by evaluation of cultures for the same biological endpoints as ASX/GB-treated cells. Each reagent was added at the outset of a 24 hours culture period, followed by harvest of cellular fraction for immunophenotyping studies. […] Two-color Flow cytometry was conducted using a Coulter Epics XL automated flow cytometer (Coulter Scientific, Hialeah, Fla., USA). Isotypic controls for the monoclonal antibodies (mAb) used to detect antigens of interest were established for each cell preparation. Positive analysis regions for cells expressing specific surface markers were set against controls and specific binding of fluorophore-conjugated mAb was analyzed by cytofluorography according to standard methods recommended by the manufacturer. Lymphocyte subpopulations were identified by position on forward and side scatter plots and live-gated. Expression of each antigen was reported as percentage cells positive for a particular T cell subpopulation defined by expression of CD3 (T lymphocyte marker) plus CD25, plus or minus standard error. Statistical analysis was performed using an independent t-test. All statistical analyses were performed using the SPSS for Windows statistical package (Norusis/SPSS, Inc.). […] The capacity of formulations evaluated in this study to suppress immune activation was measured as a stimulation index (SI), defined as the ratio of […].

[4] = tested on: CD3+HLA-DR+ T lymphocytes in human PBMC; test: PHA induction of HLA-DR+ on CD3+ T cells, PBMC from asthma patients (Example 5); assay type: cell-based; conditions: for SI HLA-DR: PHA 50 μg/ml, 24 hours
Method: (§1) Experiments were carried out to determine whether the immunoregulatory capacity of two commonly-used H1-inhibitory antihistamines: cetirizine dihydrochloride (CTZ/Zyrtec) and azelastine ([…]) is potentiated by the platelet activating factor receptor (PAFR) antagonist and free radical scavenger Ginkgolide B (GB). […] Each drug was first evaluated independently over a 3-log dose range from 10^-8-10^-6 M.

[5] = tested on: CD3+CD25+ T lymphocytes in human PBMC; test: PHA induction of CD25+ on CD3+ T cells, PBMC from asthma patients (Example 5); assay type: cell-based; conditions: for SI CD25: PHA 50 μg/ml, 24 hours
Method: as §1

## CC(C)Cc1ccc(C(C)C(=O)O)cc1 (centres unmarked) [IB, Ibuprophen, reference compound]
[1]; 10 mg/kg
  Eosinophils: 5.4 ± 0.8 cell × 10^6/animal
  Macrophages: 9.5 ± 0.8 cell × 10^6/animal
  Neutrophils: 5.7 ± 0.7 cell × 10^5/animal
[1]; 100 mg/kg
  Eosinophils: 4.7 ± 0.6 cell × 10^6/animal
  Macrophages: 9.0 ± 1.3 cell × 10^6/animal
  Neutrophils: 5.0 ± 0.7 cell × 10^5/animal
[1]; 500 mg/kg
  Eosinophils: 3.0 ± 0.8* cell × 10^6/animal
  Macrophages: 4.7 ± 1.3* cell × 10^6/animal
  Neutrophils: 3.1 ± 0.9* cell × 10^5/animal
[1]; 1000 mg/kg
  Eosinophils: 2.9 ± 0.5* cell × 10^6/animal
  Macrophages: 4.3 ± 0.9* cell × 10^6/animal
  Neutrophils: 3.1 ± 0.5* cell × 10^5/animal
[2]; 10 mg/kg
  cAMP: 7.1 ± 0.6 pmol (mg protein)^−1
  cGMP: 1.1 ± 0.2 pmol (mg protein)^−1
[2]; 100 mg/kg
  cAMP: 7.3 ± 0.9 pmol (mg protein)^−1
  cGMP: 1.1 ± 0.2 pmol (mg protein)^−1
[2]; 500 mg/kg
  cAMP: 8.2 ± 0.8 pmol (mg protein)^−1
  cGMP: 1.4 ± 0.2 pmol (mg protein)^−1
[2]; 1000 mg/kg
  cAMP: 8.1 ± 0.9 pmol (mg protein)^−1
  cGMP: 1.6 ± 0.2 pmol (mg protein)^−1

## CN1CCCC(n2nc(Cc3ccc(Cl)cc3)c3ccccc3c2=O)CC1 (centres unmarked) [AZE, azelastine]
[3]
  SI (CD3+CD25+): 0.76±0.12
[4]; 10^−8 M
  decrease in SI for HLA-DR: 45%
  SI HLA-DR: 0.55 ± 0.09
[4]; 10^−6 M
  SI HLA-DR: 0.61 ± 0.13
[4]; 10^−7 M
  SI HLA-DR: 0.56 ± 0.10
[5]; 10^−8 M
  decrease in SI for CD25+: 19%
  SI CD25: 0.81 ± 0.08
[5]; 10^−6 M
  SI CD25: 1.13 ± 0.15
[5]; 10^−7 M
  SI CD25: 0.88 ± 0.08

## O=C(O)COCCN1CCN(C(c2ccccc2)c2ccc(Cl)cc2)CC1 (centres unmarked) [CTZ, cetirizine dihydrochloride]
[3]
  SI (CD3+CD25+): 0.78±0.11
[4]; 10^−8 M
  decrease in SI for HLA-DR: 53%
  SI HLA-DR: 0.47 ± 0.13
[4]; 10^−6 M
  SI HLA-DR: 0.70 ± 0.04
[4]; 10^−7 M
  SI HLA-DR: 0.58 ± 0.11
[5]; 10^−8 M
  decrease in SI for CD25+: 29%
  SI CD25: 0.71 ± 0.12
[5]; 10^−6 M
  SI CD25: 0.93 ± 0.06
[5]; 10^−7 M
  SI CD25: 0.88 ± 0.14

## O=C1O[C@H]([C@@H](O)CO)C(O)=C1O [Vitamin C, ascorbic acid]
[1]; 50 mg/kg
  Eosinophils: 5.5 ± 0.5 cell × 10^6/animal
  Macrophages: 9.5 ± 0.9 cell × 10^6/animal
  Neutrophils: 5.4 ± 0.6 cell × 10^5/animal
[1]; 100 mg/kg
  Eosinophils: 5.5 ± 0.8 cell × 10^6/animal
  Macrophages: 9.8 ± 0.9 cell × 10^6/animal
  Neutrophils: 5.6 ± 0.8 cell × 10^5/animal
[1]; 200 mg/kg
  Eosinophils: 4.8 ± 1.1 cell × 10^6/animal
  Macrophages: 9.2 ± 0.8 cell × 10^6/animal
  Neutrophils: 5.0 ± 0.8 cell × 10^5/animal
[1]; 400 mg/kg
  Eosinophils: 3.5 ± 0.9* cell × 10^6/animal
  Macrophages: 7.2 ± 1.5* cell × 10^6/animal
  Neutrophils: 4.7 ± 0.9 cell × 10^5/animal
[1]; components used separately: 10 mg/kg AX, 200 mg/kg vit C, 10 mg/kg GB
  protection against OV-induced asthma: failed to protect; also recorded: failed to reduce the severity of asthma
[2]; 50 mg/kg
  cAMP: 6.8 ± 0.5 pmol (mg protein)^−1
  cGMP: 1.1 ± 0.2 pmol (mg protein)^−1
[2]; 100 mg/kg
  cAMP: 7.1 ± 0.8 pmol (mg protein)^−1
  cGMP: 1.0 ± 0.2 pmol (mg protein)^−1
[2]; 200 mg/kg
  cAMP: 7.9 ± 0.9 pmol (mg protein)^−1
  cGMP: 1.2 ± 0.2 pmol (mg protein)^−1
[2]; 400 mg/kg
  cAMP: 7.9 ± 0.8 pmol (mg protein)^−1
  cGMP: 1.5 ± 0.2 pmol (mg protein)^−1
